According to ChEMBL document CHEMBL1201862, “PubChem BioAssay data set” (2004):
Active and inactive are the calls of the source.

Legend:
[1] = Late stage results for the probe development effort to identify inhibitors of Plasmodium falciparum gametocytes: Luminescence-based cell-based high throughput dose response assay to identify inhibitors of viability of late stage Plasmodium falciparum gametocytes.; assay type: functional
[2] = reduction of Shn3 3'UTR-driven luciferase in osteoblasts – cell-based, Clone20 osteoblasts, firefly luciferase, cherry-picked, dose response (AID 624132); assay type: functional;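 note: firefly luciferase luminescence from reporter carrying the Shn3 3'UTR in osteoblasts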
[3] = loss of viability in HepG2 cells – cell-based, CellTiter-Glo, cherry-picked, cytotoxicity control for Shn3 inhibitor project, dose response (AID 624134); assay type: functional
[4] = non-specific 3'UTR reporter inhibition in Clone20-Shn3RL – cell-based, Renilla luciferase, cherry-picked, counter-screen for Shn3 inhibitor project, dose response (AID 624133); assay type: functional
[5] = Shn3 3'UTR reporter signal decrease – cell-based, Clone20 osteoblasts, firefly luciferase, cherry-pick, set 2, Schnurri-3 inhibitor project, dose response (AID 720490); assay type: functional;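 note: actives lower the luminescence signal as inhibitors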
[6] = EF1alpha-driven Renilla reporter with control 3'UTR suppression – Clone20-Shn3RL cells, dual-Glo, cherry-pick, set 2, counter-screen for Shn3 3'UTR targeting project, dose response (AID 720724); assay type: functional, cell-based; settings: Dual-Go Shn3RL
[7] = HIV-1 Vif–A3G interaction blockers – biochemical, TR-FRET, GST-Vif 1-94, biotin-A3G peptide, dose response retest, primary screen (AID 1117319); assay type: functional;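 note: TR-FRET signal of purified GST-Vif binding a biotinylated A3G peptide; inhibitors lower the FRET signal by blocking Vif and A3G binding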
[8] = glucagon-like peptide-1 release potency in STC-1, concentration-response, half-maximal inhibitory concentration in the STC-1 line (AID 1117345); assay type: functional, cell-based
[9] = Potency on glucagon-like peptide 1 release, dose-response in NCI-H716 cell line, half maximal inhibitory concentration (AID 1117344); assay type: functional, cell-based
Genome polyprotein = Genome polyprotein (Hepatitis C virus, UniProt Q2Q167); assay: disruption of hepatitis C core self-association – biochemical, TR-FRET, dose response (AID 2159); design: species or system Hepacivirus hominis;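 note: blocks dimerization of HCV core protein measured by TR-FRET between tagged core106 pairs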
Sequence of Genome polyprotein (Q2Q167 whole entry): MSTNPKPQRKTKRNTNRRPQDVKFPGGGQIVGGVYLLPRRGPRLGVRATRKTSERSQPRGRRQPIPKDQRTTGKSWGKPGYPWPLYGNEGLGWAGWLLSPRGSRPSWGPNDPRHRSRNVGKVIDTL

Bcl-2-like protein 10 = biological target: T1, Bcl-2-like protein 10 (Homo sapiens, UniProt Q9HD36); assay: Bcl-B/TR3 peptide binding disruption – biochemical, fluorescence polarization, FITC-TR3 peptide, selectivity assay for Bfl-1 inhibitor project, primary screen (AID 748);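 note: fluorescence polarization from a fluorescein-labelled TR3 peptide binding purified Bcl-B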
T1 sequence (Q9HD36 whole entry): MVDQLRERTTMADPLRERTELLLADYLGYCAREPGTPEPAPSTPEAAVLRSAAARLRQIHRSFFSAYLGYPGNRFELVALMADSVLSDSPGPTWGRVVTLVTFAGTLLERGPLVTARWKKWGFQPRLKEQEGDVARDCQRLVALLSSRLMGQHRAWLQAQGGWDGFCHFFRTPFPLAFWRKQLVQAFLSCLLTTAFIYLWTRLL

[10] = test system: Streptococcus sp. 'group A'; assay: Streptococcus pyogenes SK(-)GAS viability under kanamycin – luminescence, BacTiterGlo, confirmation, counter-screen for streptokinase expression inhibitor project, dose response (AID 1900); assay type: functional, organism-based
[11] = biological target: Induced myeloid leukemia cell differentiation protein Mcl-1 (Homo sapiens, UniProt Q07820); assay type: functional
Sequence of Induced myeloid leukemia cell differentiation protein Mcl-1 (Q07820 whole entry): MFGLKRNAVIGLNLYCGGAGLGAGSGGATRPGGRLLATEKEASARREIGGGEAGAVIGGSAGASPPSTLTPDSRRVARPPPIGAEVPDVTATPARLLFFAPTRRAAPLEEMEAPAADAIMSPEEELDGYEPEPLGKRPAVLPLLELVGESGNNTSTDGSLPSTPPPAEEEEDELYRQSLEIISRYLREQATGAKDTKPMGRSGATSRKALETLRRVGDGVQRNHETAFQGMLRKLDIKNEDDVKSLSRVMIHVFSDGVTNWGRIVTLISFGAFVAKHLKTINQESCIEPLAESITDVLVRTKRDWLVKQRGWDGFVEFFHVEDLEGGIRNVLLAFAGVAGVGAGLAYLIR

Streptococcus = assay: GAS UMAA2166 growth inhibition – luminescence, BacTiterGlo, counter-screen for streptokinase expression inhibitor project, dose response (AID 1915); assay type: functional, organism-based;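 note: potency for reduction of bacterial viability or growth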
Beta-galactosidase = Beta-galactosidase (Escherichia coli, UniProt Q8VNN2); assay: detection-enzyme interference by beta-gal modulators – biochemical, E. coli enzyme, set 3, artefact control for CCR6 antagonist project, dose response (AID 504712); assay type: functional
Sequence of Beta-galactosidase (Q8VNN2 whole entry): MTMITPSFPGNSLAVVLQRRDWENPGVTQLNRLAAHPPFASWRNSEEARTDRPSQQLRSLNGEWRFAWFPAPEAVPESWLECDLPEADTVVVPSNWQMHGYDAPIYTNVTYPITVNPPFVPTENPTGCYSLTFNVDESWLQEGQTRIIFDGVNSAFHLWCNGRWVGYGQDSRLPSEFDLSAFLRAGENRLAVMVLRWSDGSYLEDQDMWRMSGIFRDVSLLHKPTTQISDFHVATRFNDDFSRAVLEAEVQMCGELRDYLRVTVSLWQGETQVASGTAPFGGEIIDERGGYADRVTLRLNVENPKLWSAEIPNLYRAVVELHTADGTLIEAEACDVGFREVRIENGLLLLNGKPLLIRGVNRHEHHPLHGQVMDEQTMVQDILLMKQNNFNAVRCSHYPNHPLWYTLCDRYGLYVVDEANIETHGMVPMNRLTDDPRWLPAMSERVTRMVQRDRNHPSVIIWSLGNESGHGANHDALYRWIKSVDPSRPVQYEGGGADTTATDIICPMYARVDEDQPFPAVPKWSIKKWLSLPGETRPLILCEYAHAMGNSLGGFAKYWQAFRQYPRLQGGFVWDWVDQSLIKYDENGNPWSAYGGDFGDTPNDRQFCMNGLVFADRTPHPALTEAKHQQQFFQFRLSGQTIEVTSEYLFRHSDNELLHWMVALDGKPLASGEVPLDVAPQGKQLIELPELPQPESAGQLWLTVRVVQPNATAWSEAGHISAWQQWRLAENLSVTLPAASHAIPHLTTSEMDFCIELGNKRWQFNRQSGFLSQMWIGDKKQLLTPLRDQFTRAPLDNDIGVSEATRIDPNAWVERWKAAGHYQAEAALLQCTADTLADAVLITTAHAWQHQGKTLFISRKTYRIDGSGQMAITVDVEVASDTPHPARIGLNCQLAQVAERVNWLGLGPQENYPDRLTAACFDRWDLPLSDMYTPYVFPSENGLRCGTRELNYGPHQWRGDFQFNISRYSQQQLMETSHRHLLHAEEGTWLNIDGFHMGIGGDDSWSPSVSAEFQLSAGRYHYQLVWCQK

Cysteine protease ATG4B = biological target: T2, Cysteine protease ATG4B (Homo sapiens, UniProt Q9Y4P1); assay type: functional;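 note: Fluorescence-based dose-response confirmation assay measuring inhibition of ATG4B activity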
T2 sequence (Q9Y4P1 whole entry): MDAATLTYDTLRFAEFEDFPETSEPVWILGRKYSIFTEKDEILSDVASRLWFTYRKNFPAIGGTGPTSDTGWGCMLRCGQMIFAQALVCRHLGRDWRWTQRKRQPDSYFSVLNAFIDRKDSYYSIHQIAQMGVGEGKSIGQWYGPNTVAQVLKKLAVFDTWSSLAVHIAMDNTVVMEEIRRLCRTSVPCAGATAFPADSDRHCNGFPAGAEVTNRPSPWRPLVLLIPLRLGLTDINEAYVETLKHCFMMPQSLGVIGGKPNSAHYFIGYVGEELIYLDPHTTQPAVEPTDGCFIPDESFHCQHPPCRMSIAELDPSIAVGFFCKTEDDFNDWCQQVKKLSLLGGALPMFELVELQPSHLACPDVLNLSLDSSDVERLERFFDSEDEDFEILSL

Phospholipase A2 = Phospholipase A2 (Homo sapiens, UniProt P04054); assay type: functional;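 note: confirmatory dose-response counterscreen on phospholipase A2, testing hits that came from an ultra-high-throughput screen for ATG4B inhibitors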
Sequence of Phospholipase A2 (P04054 whole entry): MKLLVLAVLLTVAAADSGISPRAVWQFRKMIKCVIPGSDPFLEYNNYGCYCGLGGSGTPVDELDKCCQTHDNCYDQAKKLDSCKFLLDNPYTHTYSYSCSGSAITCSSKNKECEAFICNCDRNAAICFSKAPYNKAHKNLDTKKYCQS

[12] = biological target: DNA (cytosine-5)-methyltransferase 1 (Homo sapiens, UniProt P26358); assay: inhibition of DNA methylation by DNMT1 – biochemical, fluorescent molecular beacon, confirmation (AID 602386); assay type: functional
Sequence of DNA (cytosine-5)-methyltransferase 1 (P26358 whole entry): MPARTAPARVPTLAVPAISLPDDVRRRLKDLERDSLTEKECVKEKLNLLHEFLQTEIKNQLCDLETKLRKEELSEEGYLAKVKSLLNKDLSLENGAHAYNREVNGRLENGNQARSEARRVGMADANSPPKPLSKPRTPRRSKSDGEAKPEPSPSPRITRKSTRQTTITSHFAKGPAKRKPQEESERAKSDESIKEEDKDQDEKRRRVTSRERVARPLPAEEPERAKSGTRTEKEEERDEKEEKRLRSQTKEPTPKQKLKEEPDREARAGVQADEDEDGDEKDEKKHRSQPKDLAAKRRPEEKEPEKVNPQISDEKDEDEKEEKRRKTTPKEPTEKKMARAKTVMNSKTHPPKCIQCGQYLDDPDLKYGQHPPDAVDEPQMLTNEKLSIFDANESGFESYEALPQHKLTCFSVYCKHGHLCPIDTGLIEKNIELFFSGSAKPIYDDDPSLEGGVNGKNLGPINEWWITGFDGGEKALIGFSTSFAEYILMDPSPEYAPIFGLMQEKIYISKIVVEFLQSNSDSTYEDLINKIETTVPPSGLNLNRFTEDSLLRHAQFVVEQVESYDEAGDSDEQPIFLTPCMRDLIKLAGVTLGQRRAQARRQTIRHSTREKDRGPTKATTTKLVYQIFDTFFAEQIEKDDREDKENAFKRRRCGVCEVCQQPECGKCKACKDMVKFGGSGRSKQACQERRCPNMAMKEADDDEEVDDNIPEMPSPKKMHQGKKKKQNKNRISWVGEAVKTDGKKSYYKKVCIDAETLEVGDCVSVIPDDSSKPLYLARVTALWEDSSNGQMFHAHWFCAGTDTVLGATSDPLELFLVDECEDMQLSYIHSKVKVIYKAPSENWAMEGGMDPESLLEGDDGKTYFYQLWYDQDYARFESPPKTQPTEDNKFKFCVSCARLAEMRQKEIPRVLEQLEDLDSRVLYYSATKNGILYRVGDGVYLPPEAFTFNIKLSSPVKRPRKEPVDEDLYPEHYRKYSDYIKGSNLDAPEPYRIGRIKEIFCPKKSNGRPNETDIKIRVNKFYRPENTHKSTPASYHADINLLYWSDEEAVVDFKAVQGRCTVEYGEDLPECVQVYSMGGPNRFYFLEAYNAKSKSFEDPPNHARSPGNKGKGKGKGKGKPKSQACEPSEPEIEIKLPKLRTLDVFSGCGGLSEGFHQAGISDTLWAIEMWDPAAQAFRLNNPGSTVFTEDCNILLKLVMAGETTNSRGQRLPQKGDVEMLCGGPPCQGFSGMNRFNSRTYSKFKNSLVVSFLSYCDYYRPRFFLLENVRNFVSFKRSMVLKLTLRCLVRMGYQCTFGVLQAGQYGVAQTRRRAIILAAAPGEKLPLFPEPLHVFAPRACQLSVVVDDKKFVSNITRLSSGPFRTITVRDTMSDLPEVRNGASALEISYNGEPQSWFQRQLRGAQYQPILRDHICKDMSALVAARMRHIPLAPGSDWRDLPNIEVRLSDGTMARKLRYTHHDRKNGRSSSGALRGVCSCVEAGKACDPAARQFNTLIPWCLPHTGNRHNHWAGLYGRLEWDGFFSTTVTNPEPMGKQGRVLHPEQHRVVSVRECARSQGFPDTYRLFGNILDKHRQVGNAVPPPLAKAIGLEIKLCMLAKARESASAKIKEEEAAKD

NADPH oxidase 1 = NADPH oxidase 1 (Homo sapiens, UniProt Q9Y5S8); assay: Late-stage luminescence-based cell-based dose response assay to identify inhibitors of NADPH oxidase 1 (NOX1): Synthesized analogs.; assay type: functional
Sequence of NADPH oxidase 1 (Q9Y5S8 whole entry): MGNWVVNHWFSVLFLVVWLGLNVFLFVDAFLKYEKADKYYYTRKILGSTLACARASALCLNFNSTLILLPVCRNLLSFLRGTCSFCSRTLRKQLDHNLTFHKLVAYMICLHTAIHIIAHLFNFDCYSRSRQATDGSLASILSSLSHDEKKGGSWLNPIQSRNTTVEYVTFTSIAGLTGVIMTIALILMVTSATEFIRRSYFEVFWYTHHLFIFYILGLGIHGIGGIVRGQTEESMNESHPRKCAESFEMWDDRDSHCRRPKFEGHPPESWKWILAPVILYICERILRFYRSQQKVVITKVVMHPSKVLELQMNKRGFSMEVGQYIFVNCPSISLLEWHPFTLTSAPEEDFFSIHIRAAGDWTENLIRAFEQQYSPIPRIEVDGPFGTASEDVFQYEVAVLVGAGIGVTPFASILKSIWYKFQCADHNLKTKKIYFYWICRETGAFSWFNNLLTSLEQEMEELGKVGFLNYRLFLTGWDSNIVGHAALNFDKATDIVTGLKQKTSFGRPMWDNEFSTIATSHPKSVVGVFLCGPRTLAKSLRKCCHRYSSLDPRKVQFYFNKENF

[13] = biological target: Complement C1s subcomponent (Homo sapiens, UniProt P09871); assay: Complement C1s ELISA. [Related pubchem assays: 538, 787 ]; assay type: functional
Sequence of Complement C1s subcomponent (P09871 16-437 limits assumed): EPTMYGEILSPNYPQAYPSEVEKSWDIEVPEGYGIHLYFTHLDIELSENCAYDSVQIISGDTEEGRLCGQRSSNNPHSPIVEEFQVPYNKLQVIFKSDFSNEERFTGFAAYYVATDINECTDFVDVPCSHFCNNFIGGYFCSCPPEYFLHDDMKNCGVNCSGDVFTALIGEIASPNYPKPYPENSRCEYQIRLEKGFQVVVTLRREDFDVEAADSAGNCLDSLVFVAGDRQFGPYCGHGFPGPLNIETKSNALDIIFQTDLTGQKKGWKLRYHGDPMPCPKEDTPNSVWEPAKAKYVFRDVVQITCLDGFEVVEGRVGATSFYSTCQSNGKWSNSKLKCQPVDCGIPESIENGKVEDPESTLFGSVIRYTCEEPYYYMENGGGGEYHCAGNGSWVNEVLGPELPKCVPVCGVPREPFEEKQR
Sequence of Complement C1s subcomponent (P09871 438-688 limits assumed): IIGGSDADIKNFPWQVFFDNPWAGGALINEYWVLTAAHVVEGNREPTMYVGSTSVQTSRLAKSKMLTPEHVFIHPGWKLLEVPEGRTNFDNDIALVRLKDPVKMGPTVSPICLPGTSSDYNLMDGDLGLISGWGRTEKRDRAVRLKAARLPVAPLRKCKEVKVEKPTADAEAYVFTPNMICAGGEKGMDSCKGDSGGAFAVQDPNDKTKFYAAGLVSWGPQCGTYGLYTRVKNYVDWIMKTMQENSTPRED

Prothrombin = Prothrombin (Homo sapiens, UniProt P00734); assay: Thrombin 1536 HTS Dose Response Confirmation. [Related pubchem assays: 1046 (Thrombin 1536 HTS; hits were confirmed in this assay)]; assay type: functional
Paired box protein Pax-8 = Paired box protein Pax-8 (Homo sapiens, UniProt Q06710); assay: PAX8 transcriptional activity inhibition in RMG-I – RMG-I cells, luciferase, cherry-pick, dose response (AID 687027); assay type: functional, cell-based;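 note: luciferase reporter driven by Pax8 target thyroperoxidase promoter measured by SteadyGlo luminescence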
Sequence of Paired box protein Pax-8 (Q06710 whole entry): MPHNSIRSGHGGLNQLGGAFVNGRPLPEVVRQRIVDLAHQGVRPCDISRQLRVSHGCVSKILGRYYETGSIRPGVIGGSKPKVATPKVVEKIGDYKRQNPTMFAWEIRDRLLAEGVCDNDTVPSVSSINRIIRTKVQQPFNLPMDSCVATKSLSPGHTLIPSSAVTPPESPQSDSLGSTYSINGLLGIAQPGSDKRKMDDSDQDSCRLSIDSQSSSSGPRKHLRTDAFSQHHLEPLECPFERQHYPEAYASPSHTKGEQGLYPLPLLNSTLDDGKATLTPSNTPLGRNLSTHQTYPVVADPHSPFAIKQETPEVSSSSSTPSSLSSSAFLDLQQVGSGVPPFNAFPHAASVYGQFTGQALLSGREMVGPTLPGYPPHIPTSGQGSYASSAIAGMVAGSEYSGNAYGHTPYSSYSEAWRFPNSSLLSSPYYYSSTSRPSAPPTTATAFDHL

[14] = inhibitors acting on PAX2 in cells – cell-based, plate reader, dry powder samples, selectivity assay for PAX8 inhibitor project, dose response (AID 743048); assay type: functional;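 note: HEK293 cells carrying a WT1 promoter luciferase reporter driven by expressed Pax2; potency is for inhibition of Pax2 driven reporter signal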
[15] = COV362 cell viability loss – plate reader, dry powder, SA12, cytotoxicity control for PAX8 inhibitor project, dose response (AID 743144); assay type: functional, cell-based
[16] = toxicity toward immortalized ovarian surface epithelium – cell-based, plate reader, dry powder samples, cytotoxicity control for PAX8 inhibitor project, dose response (AID 743045); assay type: functional
[17] = OVCAR-3 cell viability loss – plate reader, dry powder samples, PAX8 inhibitor project, dose response (AID 743044); assay type: functional, cell-based
[18] = PAX5 cellular inhibition readout – cell-based, plate reader, dry powder samples, selectivity assay for PAX8 inhibitor project, dose response (AID 743047); assay type: functional;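 note: HEK293 cells carrying a Pax5 driven CD19 promoter luciferase reporter; potency of inhibitors that lower reporter luminescence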
[19] = IGROV1 cell killing – plate reader, dry powder samples, PAX8 inhibitor project, dose response (AID 743043); assay type: functional, cell-based; settings: IGROV-1
[20] = OVCAR4 cell viability loss – plate reader, dry powder, SA11, cytotoxicity control for PAX8 inhibitor project, dose response (AID 743150); assay type: functional, cell-based; settings: OVCAR-4
[21] = COV434 cell viability loss – plate reader, dry powder, SA7, cytotoxicity control for PAX8 inhibitor project, dose response (AID 743145); assay type: functional, cell-based
[22] = OV-90 cell viability loss – plate reader, dry powder, SA8, PAX8 inhibitor project, dose response (AID 743149); assay type: functional, cell-based
[23] = general cell-killing toxicity readout – plate reader, dry powder samples, cytotoxicity control for PAX8 inhibitor project, dose response (AID 743021); assay type: functional, cell-based

For `O=C(Nc1nccs1)c1cc(-c2ccccc2)nn1-c1ccccc1`, the IC50 [1] was > 37.2 µM (inactive).

For `CCOc1cc(CNCCc2ccc(S(N)(=O)=O)cc2)ccc1OCc1ccccc1`, the AC50 [2] was 2.44 µM (active), the AC50 [3] was > 70 µM (inactive) and the AC50 [4] was 25.5 µM (active). The AC50 [5] was 3.56 µM (active) and the AC50 [6] was 31.9 µM (active).

For `COc1cccc(-c2cc(C(=O)Nc3cnn(Cc4ccccc4C)c3)no2)c1`, the IC50 [7] was > 100 µM (active).

In the case of `Oc1cccc2cccnc12`, the IC50 [8] is reported as > 20 µM (inactive) and the IC50 [9] is reported as > 40 µM (inactive).

In the case of `CCOc1cc(/C=C2\C(=O)N(c3nc(-c4ccc(Br)cc4)cs3)N=C2c2ccccc2)ccc1O`, the IC50 (Genome polyprotein) is reported as > 49.8 µM (not active), the IC50 (Bcl-2-like protein 10) is reported as 43.8 µM (active) and the EC50 [10] is reported as 1.78 µM (active). For the same molecule, the IC50 [11] was 2.54 µM (active), the EC50 (Streptococcus) was 3.67 µM (active) and the IC50 (Beta-galactosidase) was > 66.6 µM (inactive). For the same molecule, the IC50 (Cysteine protease ATG4B) was 5.08 µM (active), the IC50 (Phospholipase A2) was 6.97 µM (active) and the IC50 [12] was 4.35 µM (active).

With `O=C(c1ccco1)N1c2ccccc2Sc2ccccc21` the IC50 (NADPH oxidase 1) was 6.37 µM (active).

With `COc1ccc(-c2nc(SC)n(C(=O)c3ccco3)n2)cc1` the IC50 [13] was > 50 µM (not active) and the IC50 (Prothrombin) was 1.14 µM (active).

For `Cc1ccccc1CNC(=O)C1CCCN(c2nnc(C)c3c(C)n(-c4ccccc4)nc23)C1` (configuration not stated), the AC50 (Paired box protein Pax-8) was 5.95 µM (active), the AC50 [14] was 4.18 µM (active) and the AC50 [15] was 42.3 µM (active). For the same molecule, the AC50 [16] was 91.9 µM (active), the AC50 [17] was 42.8 µM (active) and the AC50 [18] was 24 µM (active). The AC50 [19] was 32.4 µM (active), the AC50 [20] was 61.3 µM (active) and the AC50 [21] was 98.3 µM (active). The AC50 [22] was 9.9 µM (active) and the AC50 [23] was < 29.5 µM (active).
